In PubChem BioAssay AID2060912 (Molecular Pharmacology Branch, DTP, NCI, 2025):

Tested on: HUVEC/MSC spheroids viability
Assay: Human HUVEC/MSC cell line growth inhibition [KRAS2];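 for viability, T/C: percent of DMSO vehicle control luminescence so 100% = untreated viability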
Conditions: for IC50: curve of first compound; for viability, T/C: stronger effect = lower value; active = viability on the fitted dose curve at most 10% of control; inactive = the rest
Source text: Multicellular complex tumor spheroid response to RAS pathway inhibitors in combination with a targeted agents in patient-derived cell lines with oncogenic KRAS variants from multiple cancer types
A high-throughput screen of multi-cell type tumor spheroids was designed to identify active combinations of targeted small molecules and KRAS pathway inhibitors. Complex spheroids include a stromal component modeled by human endothelial cells (HUVEC) and fibroblasts modeled by human mesenchymal stem cells (MSCs). The concentration ranges selected for each drug and investigational agent were based upon clinically achievable concentrations if the clinical Cmax of the agent was known. * [This particular assayID is a followup dataset requested by reviewers of the manuscript. It is a test of the HUVEC and MSC without the tumor cells, and was conducted using different drug plates and a different plate layout.]
Compounds. The drugs and investigational agents: BI-3406 (NSC825286), BAY-293 (NSC824723), batoprotafib (TNO155; NSC825523), sotorasib (AMG 510; NSC818433), MRTX1257 (NSC819558), elimusertib (BAY 1895344; NSC800525), molibresib (GSK525762; NSC774829), temuterkib (LY3214996; NSC803410), venetoclax (NSC766270), alisertib (NSC759677), olaparib (NSC753686), talazoparib (NSC767125), erdafitinib (NSC781556), ipatasertib (NSC767898), cabozantinib (NSC761068), nintedanib (NSC756659), abemaciclib (NSC768073), docetaxel (NSC628503), trametinib (NSC758246), and sapanisertib (NSC764658) were obtained from the National Cancer Institute (NCI) Developmental Therapeutics Program Chemical Repository. The FDA-approved anticancer drug set is available from the Developmental Therapeutics Program. […] The stock solutions were prepared in dimethyl sulfoxide (DMSO, Sigma-Aldrich, St. Louis, MO, cat. D2650) at 800-fold the tested concentration and stored at -70 degrees C prior to their use. All drugs and investigational agents were tested over a range starting from a high concentration at or near the clinical Cmax and decreasing in half-log increments. If the clinical Cmax for an agent had not been determined, the highest concentration tested was 10 microM.
Cell Culture. All cells were maintained in an incubator at 37 degrees C and 5% CO2 with 95% humidity. The PDC lines were cultured according to standard operating procedures established by the NCI PDMR (https://pdmr.cancer.gov/sops/default.htm). Briefly, all PDCs were thawed and cultured in Matrigel-coated flasks prepared with a working solution of 1X Ham's F-12 nutrient mix, without supplementation (Invitrogen, Waltham, MA, cat. 11765054), 100 U/mL penicillin-streptomycin (Invitrogen, cat. 15140122), and 2.5% Matrigel (Corning Inc., Corning, NY, cat. 354248) for the first three passages. All PDCs were cultured in complete DMEM/F-12 media containing advanced DMEM/F-12 (Invitrogen, cat. 12634028), 4.9% defined fetal bovine serum, heat inactivated (HyClone Laboratories Inc., Logan, UT, cat. SH30070.03HI), 389 ng/mL hydrocortisone (Sigma-Aldrich, cat. H4001), 9.7 ng/mL human EGF recombinant protein (Invitrogen, cat. PHG0313), 23.4 microg/mL adenine (Sigma-Aldrich, cat. A2786), 97.3 U/mL penicillin-streptomycin (Invitrogen, cat. 15140122), 1.9 mM L-glutamine (Invitrogen, cat. 25030081), and 9.7 microM Y-27632 dihydrochloride (Tocris Bioscience, Bristol, United Kingdom, cat. 1254). The PDCs were cultured in complete DMEM/F12 media without 9.7 microM Y-27632 dihydrochloride for at least two passages prior to the screen. The established cell line HOP-62 was cultured in RPMI 1640 medium, HEPES (Invitrogen, cat. 22400105) with 10% defined fetal bovine serum (HyClone Laboratories Inc., cat. SH30070.03) and 2 mM L-glutamine (Invitrogen, cat. 25030081). The pooled donor HUVEC were cultured in endothelial cell growth medium 2 (PromoCell, Heidelberg, Germany, cat. C-22011) and the hMSC were cultured in mesenchymal stem cell growth medium 2 (PromoCell, cat. C-28009). […]

[1] = second compound 0.0316 µM, first compound 0.0316 µM
[2] = second compound 0.0316 µM, first compound 0.1 µM
[3] = second compound 0.0316 µM, first compound 0.316 µM
[4] = second compound 0.0316 µM, first compound 1 µM
[5] = second compound 0.0316 µM, first compound 3.16 µM
[6] = second compound 0.0316 µM, first compound 10 µM
[7] = second compound 0.1 µM, first compound 0.0316 µM
[8] = second compound 0.1 µM, first compound 0.1 µM
[9] = second compound 0.1 µM, first compound 0.316 µM
[10] = second compound 0.1 µM, first compound 1 µM
[11] = second compound 0.1 µM, first compound 3.16 µM
[12] = second compound 0.1 µM, first compound 10 µM
[13] = second compound 0.316 µM, first compound 0.0316 µM
[14] = second compound 0.316 µM, first compound 0.1 µM
[15] = second compound 0.316 µM, first compound 0.316 µM
[16] = second compound 0.316 µM, first compound 1 µM
[17] = second compound 0.316 µM, first compound 3.16 µM
[18] = second compound 0.316 µM, first compound 10 µM
[19] = second compound 1 µM, first compound 0.0316 µM
[20] = second compound 1 µM, first compound 0.1 µM
[21] = second compound 1 µM, first compound 0.316 µM
[22] = second compound 1 µM, first compound 1 µM
[23] = second compound 1 µM, first compound 3.16 µM
[24] = second compound 1 µM, first compound 10 µM
[25] = second compound 3.16 µM, first compound 0.0316 µM
[26] = second compound 3.16 µM, first compound 0.1 µM
[27] = second compound 3.16 µM, first compound 0.316 µM
[28] = second compound 3.16 µM, first compound 1 µM
[29] = second compound 3.16 µM, first compound 3.16 µM
[30] = second compound 3.16 µM, first compound 10 µM
[31] = second compound 10 µM, first compound 0.0316 µM
[32] = second compound 10 µM, first compound 0.1 µM
[33] = second compound 10 µM, first compound 0.316 µM
[34] = second compound 10 µM, first compound 1 µM
[35] = second compound 10 µM, first compound 3.16 µM
[36] = second compound 10 µM, first compound 10 µM

COc1cc(Nc2ncc3c(n2)-c2ccc(Cl)cc2C(c2c(F)cccc2OC)=NC3)ccc1C(=O)O + C=CC(=O)N1CCN(c2nc(=O)n(-c3c(C)ccnc3C(C)C)c3nc(-c4c(O)cccc4F)c(F)cc23)C(C)C1
> 10 µM: IC50 (second compound 0.0316 µM) | IC50 (second compound 0.1 µM) | IC50 (second compound 0.316 µM) | IC50 (second compound 1 µM) | IC50 (second compound 3.16 µM) | IC50 (second compound 10 µM)
inactive: viability, T/C [1] 94.8% | viability, T/C [2] 125% | viability, T/C [3] 99% | viability, T/C [4] 109% | viability, T/C [5] 106% | viability, T/C [6] 71.6% | viability, T/C [7] 103% | viability, T/C [8] 109% | viability, T/C [9] 108% | viability, T/C [10] 111% | viability, T/C [11] 106% | viability, T/C [12] 56.3% | viability, T/C [13] 111% | viability, T/C [14] 114% | viability, T/C [15] 93.8% | viability, T/C [16] 116% | viability, T/C [17] 106% | viability, T/C [18] 69.3% | viability, T/C [19] 122% | viability, T/C [20] 127% | viability, T/C [21] 115% | viability, T/C [22] 127% | viability, T/C [23] 117% | viability, T/C [24] 72.9% | viability, T/C [25] 110% | viability, T/C [26] 123% | viability, T/C [27] 110% | viability, T/C [28] 96.3% | viability, T/C [29] 109% | viability, T/C [30] 83.3% | viability, T/C [31] 136% | viability, T/C [32] 129% | viability, T/C [33] 154% | viability, T/C [34] 120% | viability, T/C [35] 101% | viability, T/C [36] 66.8%

O=C(c1cc(Cc2n[nH]c(=O)c3ccccc23)ccc1F)N1CCN(C(=O)C2CC2)CC1 + CC1OCC2(CCN(c3cnc(Sc4ccnc(N)c4Cl)c(N)n3)CC2)C1N
> 10 µM: IC50 (second compound 0.0316 µM) | IC50 (second compound 0.1 µM) | IC50 (second compound 0.316 µM) | IC50 (second compound 1 µM) | IC50 (second compound 3.16 µM) | IC50 (second compound 10 µM)
inactive: viability, T/C [1] 102% | viability, T/C [2] 117% | viability, T/C [3] 100% | viability, T/C [4] 98.7% | viability, T/C [5] 101% | viability, T/C [6] 132% | viability, T/C [7] 101% | viability, T/C [8] 101% | viability, T/C [9] 104% | viability, T/C [10] 108% | viability, T/C [11] 109% | viability, T/C [12] 94.6% | viability, T/C [13] 102% | viability, T/C [14] 119% | viability, T/C [15] 99% | viability, T/C [16] 101% | viability, T/C [17] 88% | viability, T/C [18] 89.4% | viability, T/C [19] 85.4% | viability, T/C [20] 110% | viability, T/C [21] 95.6% | viability, T/C [22] 87.2% | viability, T/C [23] 86.6% | viability, T/C [24] 88.4% | viability, T/C [25] 74.2% | viability, T/C [26] 96.3% | viability, T/C [27] 91.8% | viability, T/C [28] 89.8% | viability, T/C [29] 98.1% | viability, T/C [30] 90.8% | viability, T/C [31] 72.5% | viability, T/C [32] 79.7% | viability, T/C [33] 79.9% | viability, T/C [34] 67.6% | viability, T/C [35] 81.5% | viability, T/C [36] 76.4%
